Measurements published in BindingDB's records for doi:10.1016/0014-2999(88)90492-x (Novo Industri, 1988).
Structures can show the parent of a compound that is named as a salt.

What was measured:
D(1A) dopamine receptor = D(1A) dopamine receptor (Mus musculus, UniProt Q61616)
D(2) dopamine receptor = D(2) dopamine receptor (Mus musculus, UniProt P61168)
Chain of D(2) dopamine receptor (P61168 whole entry): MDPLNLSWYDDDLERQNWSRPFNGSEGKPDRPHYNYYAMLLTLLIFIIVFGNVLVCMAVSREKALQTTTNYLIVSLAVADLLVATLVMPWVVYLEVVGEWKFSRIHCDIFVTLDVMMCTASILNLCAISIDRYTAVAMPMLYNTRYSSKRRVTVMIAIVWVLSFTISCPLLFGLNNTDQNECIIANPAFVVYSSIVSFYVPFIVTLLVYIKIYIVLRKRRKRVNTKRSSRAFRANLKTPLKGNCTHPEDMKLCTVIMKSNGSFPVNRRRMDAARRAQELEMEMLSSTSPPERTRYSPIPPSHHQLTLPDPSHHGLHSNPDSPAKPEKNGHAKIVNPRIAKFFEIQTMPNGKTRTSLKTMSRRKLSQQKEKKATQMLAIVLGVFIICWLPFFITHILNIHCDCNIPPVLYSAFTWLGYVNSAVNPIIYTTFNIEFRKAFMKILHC

Chain of D(1A) dopamine receptor (Q61616 whole entry): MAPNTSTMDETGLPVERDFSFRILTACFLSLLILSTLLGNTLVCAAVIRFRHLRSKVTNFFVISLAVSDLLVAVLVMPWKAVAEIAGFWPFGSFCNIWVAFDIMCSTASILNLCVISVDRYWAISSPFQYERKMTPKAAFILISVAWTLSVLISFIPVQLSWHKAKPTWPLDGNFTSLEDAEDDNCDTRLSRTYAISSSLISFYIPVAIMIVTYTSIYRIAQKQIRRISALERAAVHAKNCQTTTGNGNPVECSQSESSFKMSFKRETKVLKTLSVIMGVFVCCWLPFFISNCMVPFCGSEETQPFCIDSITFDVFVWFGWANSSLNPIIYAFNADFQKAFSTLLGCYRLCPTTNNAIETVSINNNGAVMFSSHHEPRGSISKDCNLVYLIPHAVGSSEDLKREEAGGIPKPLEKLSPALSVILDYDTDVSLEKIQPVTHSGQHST

| SMILES | Ki (D(1A) dopamine receptor) | Ki (D(2) dopamine receptor) |
| --- | --- | --- |
| CN1CCN(C2=Nc3cc(Cl)ccc3Cc3sccc32)CC1 [CAS_42239-60-1] | 0.017 µM | 0.027 µM |
| OCCN1CCN(CCCN2c3ccccc3Sc3ccc(C(F)(F)F)cc32)CC1 [2-[4-[3-[2-(trifluoromethyl)phenothiazin-10-yl]propyl]piperazin-1-yl]ethanol;hydrochloride] | 0.0045 µM | – |
| O=C(O)c1ccccc1C(=O)Nc1cccc2ccccc12 [NPA,(+)] | 0.48 µM | 0.0041 µM |
| CN1CCN(C2=Nc3cc(F)ccc3Cc3ccccc32)CC1 | 0.085 µM | 0.245 µM |

More lines, now with the values ahead:

| Ki (D(1A) dopamine receptor) | Ki (D(2) dopamine receptor) | SMILES |
| --- | --- | --- |
| 0.016 µM | 0.0076 µM | CN1CCN(C2=Nc3ccccc3Oc3ccc(Cl)cc32)CC1 [13-chloro-10-(4-methylpiperazin-1-yl)-2-oxa-9-azatricyclo[9.4.0.0^{3,8}]pentadeca-1(11),3,5,7,9,12,14-heptaene] |
| > 10 µM | 0.056 µM | CCc1c(C)[nH]c2c1C(=O)C(CN1CCOCC1)CC2 (centres undefined) [Moban] |
| – | 0.07 µM | CCN1CCCC1CNC(=O)c1cc(S(N)(=O)=O)ccc1OC (centres undefined) [N-[(1-ethylpyrrolidin-2-yl)methyl]-2-methoxy-5-sulfamoylbenzamide] |
| > 10 µM | 0.0048 µM | CCN1CCC[C@H]1CNC(=O)c1c(O)c(Cl)cc(Cl)c1OC [3,5-Dichloro-N-(1-ethyl-pyrrolidin-2-ylmethyl)-2-hydroxy-6-methoxy-benzamide (raclopride)] |
